# Experimental data reported in the supplement of paper PMC11208160.
# Assay: recombinant UMI read abundance after kanamycin selection (control-corrected) (log10(CPM+1)); higher = more efficient recombination; extreme values may be limits of the assay; sequences stand for … in AGTGCAGAGAAAATCGGCCAGTTTTCTCTGCCTGCAGTCCGCATGCCGTGGGACCCCTTGGGTTCTAACCTGTTGCCTAGATTTATGCAGCGGACTGCCTTTCTCCCAAAGTGATAAACCGG…AGGTTGGTTTCACT; site = the 11-nt donor
# Outline: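 Reported values are log10(CPM+1) from a pooled Escherichia coli screen of donor and donor-binding-loop pairs for the IS621 bridge recombinase. Selection used IPTG (0.07 mM) plus kanamycin, against unselected plating, each in two replicates. Recombinant UMIs were amplified across the donor–target junction, sequenced, converted to CPM, averaged over replicates and scaled by control-derived factors.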
# 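Wherever recombinant UMI read abundance after kanamycin selection (control-corrected) is given: IS621 bridge recombinase in Escherichia coli cells against a fixed T5 target plasmid.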
# 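Wherever recombinant barcode read abundance after kanamycin selection (control-corrected) is given: IS621 recombinase and bridge RNA in Escherichia coli cells.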
row,Sequence,recombinant UMI read abundance (log10)
1,TTTGCGACATGGACCGGTTTTCCCGGTAATCCGTATTTGCT (site TTTGCGCCTAG),0.00919
2,TTTGCGACATGGACCGGTTTTCCCGGTAATCCGTATTTGCT (site TTTGCGGCTAG),0.145
3,TTTGCGACATGGACCGGTTTTCCCGGTAATCCGTATTTGCT (site TTTGCGTCTAG),0
4,TTTGCGGCATGGACCGGTTTTCCCGGTAATCCGTATTTGGT (site TTTGCGGCTAA),0.0207
5,TTTGCGGCATGGACCGGTTTTCCCGGTAATCCGTATTTGGT (site TTTGCGGCTAC),0.0146
6,TTTGCGGCATGGACCGGTTTTCCCGGTAATCCGTATTTGGT (site TTTGCGGCTAG),0.0123
7,TTTGCGGCATGGACCGGTTTTCCCGGTAATCCGTATTTGGT (site TTTGCGGCTAT),0.144
8,TTTGCGGCATGGACCGGTTTTCCCGGTAATCCGTATTTGTT (site TTTGCGGCTAA),0.223
9,TTTGCGGCATGGACCGGTTTTCCCGGTAATCCGTATTTGTT (site TTTGCGGCTAC),0.0157
10,TTTGCGGCATGGACCGGTTTTCCCGGTAATCCGTATTTGTT (site TTTGCGGCTAG),0.0139
11,TTTGCGGCATGGACCGGTTTTCCCGGTAATCCGTATTTGTT (site TTTGCGGCTAT),0.00523
12,TTTGCTTCATGGACCGGTTTTCCCGGTAATCCGTATTTGGT (site TTTGCTTCTAC),0.00326
13,TTTGTTCCATGGACCGGTTTTCCCGGTAATCCGTATTTGTG (site TTTGTTCCTCA),0.0191
14,TTTTCCCCATGGACCGGTTTTCCCGGTAATCCGTATTTGTA (site TATTCCCCTTA),0.00331
15,TTTTCCCCATGGACCGGTTTTCCCGGTAATCCGTATTTGTA (site TCTTCCCCTTA),0.00391
16,TTTTCCCCATGGACCGGTTTTCCCGGTAATCCGTATTTGTA (site TGTTCCCCTTA),0.0253
17,TTTTCCCCATGGACCGGTTTTCCCGGTAATCCGTATTTGTA (site TTTTCCCCTTA),0.0384
18,TTTTCGGCATGGACCGGTTTTCCCGGTAATCCGTATTTGCT (site TTTACGGCTAG),0.0102
19,TTTTCGGCATGGACCGGTTTTCCCGGTAATCCGTATTTGCT (site TTTCCGGCTAG),0.302
20,TTTTCGGCATGGACCGGTTTTCCCGGTAATCCGTATTTGCT (site TTTGCGGCTAG),0.00223
21,TTTTCGGCATGGACCGGTTTTCCCGGTAATCCGTATTTGCT (site TTTTCGGCTAG),0.0145

# Assay: recombinant barcode read abundance after kanamycin selection (control-corrected) (log10(CPM+1)); higher = more efficient recombination; sequences stand for … in AGTGCAGAGAAAATCGGCCAGTTTTCTCTGCCTGCAGTCCGCATGCCGT…AGATTTATGCAGCGGACTGCCTTTCTCCCAAAGTGATAAACCGGACAGTATCATGGACCGGTTTTCCCGGTAATCCGTATTTGCAAGGTTGGTTTCACT; site = the 11-nt target
# Experimental: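 Pooled E. coli target-specificity screen for the IS621 bridge recombinase. Each library plasmid pairs an 11-nt target (CT core) with a bridge RNA whose target-binding loop (9-nt LTG + 4-nt RTG) is reprogrammed; the rest of the 177-nt WT IS621 bridge RNA scaffold is fixed. The plasmid is co-electroporated with a WT donor plasmid; recombinase is induced with 0.1 mM IPTG and recombinants are selected on kanamycin. Recombinant barcodes are sequenced, converted to CPM, averaged over two biological replicates and corrected by the unselected control CPM. Molecule = full bridge RNA written as DNA: LTG = specificity nt 1-9, RTG = reverse complement of specificity nt 8-11, in the WT scaffold.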
row,Sequence,recombinant barcode read abundance (log10)
1,AAACCACCTTGGGTTCTAACCTGTTGCCT (site AAACCACCTAG),1.49
2,AAACCACCTTGGGTTCTAACCTGTTGCCT (site ACACCACCTAG),0.257
3,AAACCACCTTGGGTTCTAACCTGTTGCCT (site AGACCACCTAG),0.276
4,AAACCACCTTGGGTTCTAACCTGTTGCCT (site ATACCACCTAG),0.861
5,AAATCCTCTTGGGTTCTAACCTGTTGCCT (site AAATCCTCTAG),1.04
6,AAATCCTCTTGGGTTCTAACCTGTTGCCT (site CAATCCTCTAG),0.475
7,AAATCCTCTTGGGTTCTAACCTGTTGCCT (site GAATCCTCTAG),0.085
8,AAATCCTCTTGGGTTCTAACCTGTTGCCT (site TAATCCTCTAG),0.409
9,AAATGACCTTGGGTTCTAACCTGTTGCGT (site AAATGACCTAC),2.66
10,AAATGACCTTGGGTTCTAACCTGTTGCGT (site GTGCCCGCTCT),0.548
11,AAATTGACTTGGGTTCTAACCTGTTGCCT (site AAATTGACTAG),0.624
12,AAATTGACTTGGGTTCTAACCTGTTGCCT (site AACTTGACTAG),0.136
13,AAATTGACTTGGGTTCTAACCTGTTGCCT (site AAGTTGACTAG),0.0999
14,AAATTGACTTGGGTTCTAACCTGTTGCCT (site AATTTGACTAG),0.0913
15,AAATTTCCTTGGGTTCTAACCTGTTGCCT (site AAATTTCCTAG),0.42
16,AAATTTCCTTGGGTTCTAACCTGTTGCCT (site ACATTTCCTAG),0.0879
17,AAATTTCCTTGGGTTCTAACCTGTTGCCT (site AGATTTCCTAG),0.0553
18,AAATTTCCTTGGGTTCTAACCTGTTGCCT (site ATATTTCCTAG),0.123
19,AACACGTCTTGGGTTCTAACCTGTTGCCT (site AAATCGTCTAG),0.0544
20,AACACGTCTTGGGTTCTAACCTGTTGCCT (site AACACGTCTAG),0.576
21,AACACTCCTTGGGTTCTAACCTGTTGCTT (site AACACTCCTAA),0.0689
22,AACACTCCTTGGGTTCTAACCTGTTGCTT (site AAGACTCCTAA),0.299
23,AACAGTTCTTGGGTTCTAACCTGTTGCCT (site AACAGCTCTAG),0.151
24,AACAGTTCTTGGGTTCTAACCTGTTGCCT (site AACAGTTCTAG),0.749
25,AACCGCCCTTGGGTTCTAACCTGTTGCGT (site AACCGCCCTAC),2.47
26,AACCGCCCTTGGGTTCTAACCTGTTGCGT (site AACCGCCCTAG),0.434

row,Sequence,recombinant barcode read abundance (log10)
1,AACCTAGCTTGGGTTCTAACCTGTTGCTA (site AACCTAGCTTA),0.395
2,AACCTAGCTTGGGTTCTAACCTGTTGCTA (site ACCCTAGCTGA),0.0657
3,AACGCTTCTTGGGTTCTAACCTGTTGCCT (site AACGCTTCTAG),0.3
4,AACGCTTCTTGGGTTCTAACCTGTTGCCT (site ACCGCTTCTAG),0.215
5,AACGCTTCTTGGGTTCTAACCTGTTGCCT (site AGCGCTTCTAG),0.0496
6,AACGCTTCTTGGGTTCTAACCTGTTGCCT (site ATCGCTTCTAG),0.0246
7,AACGTACCTTGGGTTCTAACCTGTTGCCA (site AACGTACCTTG),0.674
8,AACGTACCTTGGGTTCTAACCTGTTGCCA (site GGTAATACTAT),0.0669
9,AACTCTCCTTGGGTTCTAACCTGTTGCAT (site AACTATCCTAT),0.11
10,AACTCTCCTTGGGTTCTAACCTGTTGCAT (site AACTCTCCTAT),0.588
11,AACTCTCCTTGGGTTCTAACCTGTTGCAT (site AACTGTCCTAT),0.188
12,AACTCTCCTTGGGTTCTAACCTGTTGCAT (site AACTTTCCTAT),0.0336
13,AACTGATCTTGGGTTCTAACCTGTTGCCT (site AACTAATCTAG),0.0976
14,AACTGATCTTGGGTTCTAACCTGTTGCCT (site AACTCATCTAG),0.0693
15,AACTGATCTTGGGTTCTAACCTGTTGCCT (site AACTGATCTAG),0.397
16,AACTGATCTTGGGTTCTAACCTGTTGCCT (site AACTTATCTAG),0.038
17,AACTGGGCTTGGGTTCTAACCTGTTGCCT (site AACTGGGCTAG),0.252
18,AACTGGGCTTGGGTTCTAACCTGTTGCCT (site ACCTGGGCTAG),0.149
19,AACTGGGCTTGGGTTCTAACCTGTTGCCT (site AGCTGGGCTAG),0.0923
20,AACTGGGCTTGGGTTCTAACCTGTTGCCT (site ATCTGGGCTAG),0.141
21,AACTGTCCTTGGGTTCTAACCTGTTGCAT (site AACTATCCTAT),0.106
22,AACTGTCCTTGGGTTCTAACCTGTTGCAT (site AACTCTCCTAT),0.0428
23,AACTGTCCTTGGGTTCTAACCTGTTGCAT (site AACTGTCCTAT),0.805
24,AACTGTCCTTGGGTTCTAACCTGTTGCAT (site AACTTTCCTAT),0.106
25,AACTTAACTTGGGTTCTAACCTGTTGCCT (site AACTAAACTAG),0.236
26,AACTTAACTTGGGTTCTAACCTGTTGCCT (site AACTCAACTAG),0.0571
